Test results reported in paper PMC7224190, “Pharmacological inhibition of PRMT7 links arginine monomethylation to the cellular stress response” (Nature Communications, 2020).

Columns and labels:
NSD1 = NSD1 (Homo sapiens, UniProt Q96L73); experiment: biochemical; design: radiometric methyltransferase selectivity assay with tritiated SAM, per cent activity; details: read-out: % of control remaining
Procedure, shortened: (§1)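 Radiometric methyltransferase assays with ³H-SAM and substrate near apparent Km, compound tested at 1 and 10 μM. Methyl incorporation into biotinylated substrate read by scintillation proximity after guanidine quench; no-compound = 100%, no-enzyme = 0% activity.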

NSD2 = target: T1, NSD2 (Homo sapiens, UniProt O96028); experiment: biochemical; design: radiometric methyltransferase selectivity assay with tritiated SAM, per cent activity; details: read-out: % of control remaining
T1 sequence (O96028 1-1365): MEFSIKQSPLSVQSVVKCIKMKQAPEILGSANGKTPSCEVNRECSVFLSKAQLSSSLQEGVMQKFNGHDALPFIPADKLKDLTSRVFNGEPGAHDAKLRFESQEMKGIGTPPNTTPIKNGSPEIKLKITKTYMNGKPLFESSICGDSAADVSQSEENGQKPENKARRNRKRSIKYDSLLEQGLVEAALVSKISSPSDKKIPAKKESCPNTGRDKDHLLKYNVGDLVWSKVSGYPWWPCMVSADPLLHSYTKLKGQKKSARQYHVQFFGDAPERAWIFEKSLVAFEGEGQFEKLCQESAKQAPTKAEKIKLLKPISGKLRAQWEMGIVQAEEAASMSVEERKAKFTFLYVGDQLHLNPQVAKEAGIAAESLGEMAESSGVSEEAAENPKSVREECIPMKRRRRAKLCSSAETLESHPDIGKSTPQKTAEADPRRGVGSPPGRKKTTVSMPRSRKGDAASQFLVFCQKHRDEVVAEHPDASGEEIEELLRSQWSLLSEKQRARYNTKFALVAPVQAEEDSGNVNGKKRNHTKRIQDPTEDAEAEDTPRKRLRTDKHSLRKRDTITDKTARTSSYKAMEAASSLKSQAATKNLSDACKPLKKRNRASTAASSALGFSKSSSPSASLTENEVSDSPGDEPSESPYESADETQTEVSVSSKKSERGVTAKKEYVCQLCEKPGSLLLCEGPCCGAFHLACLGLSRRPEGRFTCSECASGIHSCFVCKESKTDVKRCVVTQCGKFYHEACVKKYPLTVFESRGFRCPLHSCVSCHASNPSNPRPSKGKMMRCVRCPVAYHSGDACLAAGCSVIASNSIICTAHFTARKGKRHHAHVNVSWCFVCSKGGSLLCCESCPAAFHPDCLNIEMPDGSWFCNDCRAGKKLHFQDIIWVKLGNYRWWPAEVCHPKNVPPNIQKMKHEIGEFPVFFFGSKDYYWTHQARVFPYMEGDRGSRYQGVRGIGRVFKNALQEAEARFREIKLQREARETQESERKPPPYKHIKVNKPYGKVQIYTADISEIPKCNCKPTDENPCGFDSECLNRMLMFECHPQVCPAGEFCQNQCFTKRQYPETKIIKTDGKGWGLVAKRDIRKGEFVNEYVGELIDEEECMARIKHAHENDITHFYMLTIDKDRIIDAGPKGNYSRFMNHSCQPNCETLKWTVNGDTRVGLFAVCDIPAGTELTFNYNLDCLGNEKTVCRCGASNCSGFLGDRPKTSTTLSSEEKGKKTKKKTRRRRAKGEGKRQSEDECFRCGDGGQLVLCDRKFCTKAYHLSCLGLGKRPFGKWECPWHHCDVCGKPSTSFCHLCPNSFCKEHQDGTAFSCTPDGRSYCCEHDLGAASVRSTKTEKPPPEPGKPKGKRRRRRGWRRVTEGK
Procedure, shortened: as §1

NSD1, sequence (Q96L73 whole entry): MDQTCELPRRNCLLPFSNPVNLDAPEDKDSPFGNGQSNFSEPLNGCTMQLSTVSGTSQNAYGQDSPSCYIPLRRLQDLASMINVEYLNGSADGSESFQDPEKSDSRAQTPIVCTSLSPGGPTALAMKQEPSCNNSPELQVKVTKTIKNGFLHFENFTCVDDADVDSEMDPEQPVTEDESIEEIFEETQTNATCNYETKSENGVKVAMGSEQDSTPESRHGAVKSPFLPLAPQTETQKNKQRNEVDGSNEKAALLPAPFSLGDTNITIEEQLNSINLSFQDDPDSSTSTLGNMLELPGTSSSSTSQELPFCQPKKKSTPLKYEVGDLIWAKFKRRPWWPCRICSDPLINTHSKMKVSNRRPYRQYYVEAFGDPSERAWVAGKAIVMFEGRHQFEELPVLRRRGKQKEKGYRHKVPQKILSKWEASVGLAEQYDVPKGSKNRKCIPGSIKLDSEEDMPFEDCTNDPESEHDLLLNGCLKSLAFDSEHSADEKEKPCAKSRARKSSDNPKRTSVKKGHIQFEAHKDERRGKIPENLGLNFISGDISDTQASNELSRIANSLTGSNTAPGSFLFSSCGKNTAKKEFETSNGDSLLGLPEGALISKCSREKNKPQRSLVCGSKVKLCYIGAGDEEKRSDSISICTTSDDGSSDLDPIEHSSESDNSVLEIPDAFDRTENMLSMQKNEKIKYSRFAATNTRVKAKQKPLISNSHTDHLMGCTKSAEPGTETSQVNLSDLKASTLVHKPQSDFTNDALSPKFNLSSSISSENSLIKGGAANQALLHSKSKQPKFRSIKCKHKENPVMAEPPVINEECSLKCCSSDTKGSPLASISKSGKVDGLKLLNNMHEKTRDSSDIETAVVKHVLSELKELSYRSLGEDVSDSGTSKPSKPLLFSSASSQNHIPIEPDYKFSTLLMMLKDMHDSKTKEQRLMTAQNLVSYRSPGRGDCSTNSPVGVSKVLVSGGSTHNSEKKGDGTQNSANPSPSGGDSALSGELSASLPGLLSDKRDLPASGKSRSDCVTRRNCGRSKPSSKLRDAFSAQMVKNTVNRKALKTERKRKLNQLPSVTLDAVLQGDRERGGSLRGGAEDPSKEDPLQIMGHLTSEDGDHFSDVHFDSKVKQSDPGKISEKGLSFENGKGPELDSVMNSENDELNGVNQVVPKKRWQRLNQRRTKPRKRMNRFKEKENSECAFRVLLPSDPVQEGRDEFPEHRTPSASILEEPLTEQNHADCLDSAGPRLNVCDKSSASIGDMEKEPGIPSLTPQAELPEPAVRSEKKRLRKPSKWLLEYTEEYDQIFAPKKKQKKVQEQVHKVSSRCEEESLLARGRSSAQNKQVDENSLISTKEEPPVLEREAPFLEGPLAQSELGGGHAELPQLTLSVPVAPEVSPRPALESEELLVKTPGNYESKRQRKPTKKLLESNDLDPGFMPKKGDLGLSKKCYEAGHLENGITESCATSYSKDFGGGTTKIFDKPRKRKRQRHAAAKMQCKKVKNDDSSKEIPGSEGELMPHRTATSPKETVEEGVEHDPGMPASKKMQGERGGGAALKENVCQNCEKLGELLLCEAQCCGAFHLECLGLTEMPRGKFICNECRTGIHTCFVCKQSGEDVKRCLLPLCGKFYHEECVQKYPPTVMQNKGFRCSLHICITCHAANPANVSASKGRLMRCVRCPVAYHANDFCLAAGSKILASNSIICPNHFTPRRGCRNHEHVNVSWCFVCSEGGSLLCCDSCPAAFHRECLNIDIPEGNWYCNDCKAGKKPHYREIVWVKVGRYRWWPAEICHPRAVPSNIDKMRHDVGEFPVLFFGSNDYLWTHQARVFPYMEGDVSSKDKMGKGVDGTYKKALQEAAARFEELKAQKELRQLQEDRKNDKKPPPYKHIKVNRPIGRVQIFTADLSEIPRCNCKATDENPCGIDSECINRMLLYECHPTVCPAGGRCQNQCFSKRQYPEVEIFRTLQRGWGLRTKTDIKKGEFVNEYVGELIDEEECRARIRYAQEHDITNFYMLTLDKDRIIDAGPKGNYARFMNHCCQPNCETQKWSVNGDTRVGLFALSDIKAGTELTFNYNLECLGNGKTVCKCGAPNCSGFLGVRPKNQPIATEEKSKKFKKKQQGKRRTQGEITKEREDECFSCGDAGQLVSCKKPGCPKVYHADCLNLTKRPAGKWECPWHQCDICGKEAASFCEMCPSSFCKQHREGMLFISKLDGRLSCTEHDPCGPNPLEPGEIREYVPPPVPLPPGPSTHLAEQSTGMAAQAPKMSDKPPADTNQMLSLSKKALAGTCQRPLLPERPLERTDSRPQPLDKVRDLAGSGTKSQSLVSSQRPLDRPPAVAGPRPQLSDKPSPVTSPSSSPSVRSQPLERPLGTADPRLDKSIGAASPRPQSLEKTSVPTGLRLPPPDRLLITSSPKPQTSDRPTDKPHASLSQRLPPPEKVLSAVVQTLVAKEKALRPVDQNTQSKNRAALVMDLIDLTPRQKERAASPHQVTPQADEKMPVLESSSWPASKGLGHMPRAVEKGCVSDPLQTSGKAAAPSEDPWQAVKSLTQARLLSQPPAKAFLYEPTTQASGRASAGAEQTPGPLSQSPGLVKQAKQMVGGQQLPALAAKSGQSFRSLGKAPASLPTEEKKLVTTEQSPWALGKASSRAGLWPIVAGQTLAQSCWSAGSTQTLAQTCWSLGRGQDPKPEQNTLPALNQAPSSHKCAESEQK

| SMILES | remaining activity at 1 µM (NSD1) [%] | remaining activity at 10 µM (NSD1) [%] | remaining activity at 1 µM (NSD2) [%] | remaining activity at 10 µM (NSD2) [%] |
| --- | --- | --- | --- | --- |
| CC1(C)O[C@@H]2[C@H](O1)[C@@H](CSCCCCNCc1cccc(-c3ccc(Cl)cc3)c1)O[C@H]2n1cnc2c(N)ncnc21 [SGC8158N] | 99 | 98 | 92 | 97 |
| Nc1ncnc2c1ncn2[C@@H]1O[C@H](CSCCCCNCc2cccc(-c3ccc(Cl)cc3)c2)[C@@H](O)[C@H]1O [SGC8158] | 104 | 99 | 106 | 101 |
